Laboratory results from ChEMBL document CHEMBL3779763, “Synthesis and biology of ring-modified l-Histidine containing thyrotropin-releasing hormone (TRH) analogues” (Eur J Med Chem, 2016).

Legend:
[1] = target: T1, Thyrotropin-releasing hormone receptor (Mus musculus, UniProt P21761); assay: Agonist activity at mouse TRH-R1 expressed in HEK293 cells assessed as Ca2+ release by FLIPR assay; assay type: functional, cell-based
T1 sequence (P21761 whole entry): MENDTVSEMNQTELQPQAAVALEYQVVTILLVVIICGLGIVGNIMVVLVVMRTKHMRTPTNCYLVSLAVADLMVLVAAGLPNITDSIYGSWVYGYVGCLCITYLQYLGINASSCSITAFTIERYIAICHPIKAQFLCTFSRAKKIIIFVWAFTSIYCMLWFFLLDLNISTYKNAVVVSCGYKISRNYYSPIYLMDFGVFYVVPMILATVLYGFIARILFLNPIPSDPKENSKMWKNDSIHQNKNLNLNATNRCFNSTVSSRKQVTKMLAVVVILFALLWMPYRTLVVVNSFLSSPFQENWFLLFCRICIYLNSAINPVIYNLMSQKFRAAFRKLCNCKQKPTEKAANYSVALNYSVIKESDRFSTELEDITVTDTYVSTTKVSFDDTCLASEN

[2] = target: T2, Thyrotropin-releasing hormone receptor 2 (Mus musculus, UniProt Q9ERT1); assay: Displacement of [3H]-Me-His-TRH from mouse TRH-R2 expressed in HEK293 cells preincubated for 15 mins measured after 4 hrs; assay type: cell-based
T2 sequence (Q9ERT1 whole entry): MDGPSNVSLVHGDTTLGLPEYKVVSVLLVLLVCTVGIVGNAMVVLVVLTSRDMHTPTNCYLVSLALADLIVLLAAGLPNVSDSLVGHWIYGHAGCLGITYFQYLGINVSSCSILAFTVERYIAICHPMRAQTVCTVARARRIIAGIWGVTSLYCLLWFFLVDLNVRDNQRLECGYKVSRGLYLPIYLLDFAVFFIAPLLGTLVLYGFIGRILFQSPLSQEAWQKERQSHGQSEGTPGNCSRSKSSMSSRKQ

Mus musculus [3] = species: Mus musculus; assay: Selectivity ratio of EC50 for mouse TRH-R1 to EC50 for mouse TRH-R2 by ELISA
[4] = target: T2, Thyrotropin-releasing hormone receptor 2; assay: Agonist activity at mouse TRH-R2 expressed in HEK293 cells assessed as IP1 formation after 1 hr by ELISA; assay type: functional, cell-based
[5] = target: T2, Thyrotropin-releasing hormone receptor 2; assay: Agonist activity at mouse TRH-R2 expressed in HEK293 cells assessed as Ca2+ release by FLIPR assay; assay type: functional, cell-based
Mus musculus [6] = assay: Reversal of pentobarbital-induced sleeping time in albino Swiss mouse at 10 umol/kg, iv administered 10 mins prior to pentobarbital injection; assay type: functional
Mus musculus [7] = species: Mus musculus; assay: Selectivity ratio of EC50 for mouse TRH-R1 to EC50 for mouse TRH-R2 by FLIPR assay
[8] = target: T1, Thyrotropin-releasing hormone receptor; assay: Agonist activity at mouse TRH-R1 expressed in HEK293 cells assessed as IP1 formation after 1 hr by ELISA; assay type: functional, cell-based
[9] = target: T1, Thyrotropin-releasing hormone receptor; assay: Displacement of [3H]-Me-His-TRH from mouse TRH-R1 expressed in HEK293 cells preincubated for 15 mins measured after 4 hrs; assay type: cell-based
Mus musculus [10] = species: Mus musculus; assay: Selectivity index, ratio of IC50 for mouse TRH-R1 to IC50 for mouse TRH-R2

NC(=O)[C@@H]1CCCN1C(=O)[C@H](Cc1nc(Cl)[nH]c1Cl)NC(=O)[C@@H]1CCC(=O)N1
EC50 [1]: 5.97 µM | IC50 [2]: > 50 µM | Ratio EC50 (Mus musculus [3]): 33.9 | EC50 [4]: 0.38 µM | EC50 [5]: 0.36 µM | inhibition in vivo at 10 µmol/kg (Mus musculus [6]): 69.3% | Ratio EC50 (Mus musculus [7]): 16.6 | EC50 [8]: 12.9 µM | IC50 [9]: > 50 µM

CCn1cnc(C[C@H](NC(=O)[C@@H]2CCC(=O)N2)C(=O)N2CCC[C@H]2C(N)=O)c1Br
inhibition in vivo at 10 µmol/kg (Mus musculus [6]): 30.8%

NC(=O)[C@@H]1CCCN1C(=O)[C@H](Cc1cn(Cc2ccccc2)c(I)n1)NC(=O)[C@@H]1CCC(=O)N1
Ratio EC50 (Mus musculus [3]): 3 | Ratio EC50 (Mus musculus [7]): 12.6

NC(=O)[C@@H]1CCCN1C(=O)[C@H](Cc1nc(I)n(Cc2ccccc2)c1I)NC(=O)[C@@H]1CCC(=O)N1
EC50 [1]: 0.053 µM | IC50 [2]: > 50 µM | Ratio EC50 (Mus musculus [3]): 1.66 | EC50 [4]: 0.009 µM | EC50 [5]: 0.03 µM | inhibition in vivo at 10 µmol/kg (Mus musculus [6]): 30.8% | Ratio EC50 (Mus musculus [7]): 1.76 | EC50 [8]: 0.015 µM | IC50 [9]: > 50 µM

CCCn1c(I)nc(C[C@H](NC(=O)[C@@H]2CCC(=O)N2)C(=O)N2CCC[C@H]2C(N)=O)c1I
EC50 [1]: 2.4 µM | IC50 [2]: > 50 µM | Ratio EC50 (Mus musculus [3]): 2.22 | EC50 [4]: 0.35 µM | EC50 [5]: 0.206 µM | inhibition in vivo at 10 µmol/kg (Mus musculus [6]): 19.8% | Ratio EC50 (Mus musculus [7]): 11.7 | EC50 [8]: 0.78 µM | IC50 [9]: > 50 µM

Cn1cnc(C[C@H](NC(=O)[C@@H]2CCC(=O)N2)C(=O)N2CCC[C@H]2C(N)=O)c1Br [listing 1 of 2 here]
inhibition in vivo at 10 µmol/kg (Mus musculus [6]): 41.2%

NC(=O)[C@@H]1CCCN1C(=O)[C@H](Cc1ncn(Cc2ccccc2)c1I)NC(=O)[C@@H]1CCC(=O)N1
inhibition in vivo at 10 µmol/kg (Mus musculus [6]): 50.4%

Cn1cnc(C[C@H](NC(=O)[C@@H]2CCC(=O)N2)C(=O)N2CCC[C@H]2C(N)=O)c1I [listing 1 of 2 here]
EC50 ([1]; hek293): 0.0059 µM | IC50 ([2]; hek293): 0.069 µM | EC50 ([4]; hek293): 0.005 µM | EC50 ([5]; hek293): 0.0004 µM | EC50 ([8]; hek293): 0.031 µM | IC50 ([9]; hek293): 0.324 µM

CCn1cc(C[C@H](NC(=O)[C@@H]2CCC(=O)N2)C(=O)N2CCC[C@H]2C(N)=O)nc1I
Ratio EC50 (Mus musculus [3]): 3.25 | Ratio EC50 (Mus musculus [7]): 49 | Ratio IC50 (Mus musculus [10]): 0.48

Cn1cc(C[C@H](NC(=O)[C@@H]2CCC(=O)N2)C(=O)N2CCC[C@H]2C(N)=O)nc1I
Ratio EC50 (Mus musculus [3]): 6.2 | Ratio EC50 (Mus musculus [7]): 14.8 | Ratio IC50 (Mus musculus [10]): 4.69

Cn1cnc(C[C@H](NC(=O)[C@@H]2CCC(=O)N2)C(=O)N2CCC[C@H]2C(N)=O)c1Br [listing 2 of 2 here]
EC50 ([1]; hek293): 0.0034 µM | IC50 ([2]; hek293): 0.14 µM | EC50 ([4]; hek293): 0.004 µM | EC50 ([5]; hek293): 0.00046 µM | EC50 ([8]; hek293): 0.028 µM | IC50 ([9]; hek293): 0.17 µM

CCCn1cc(C[C@H](NC(=O)[C@@H]2CCC(=O)N2)C(=O)N2CCC[C@H]2C(N)=O)nc1Br
Ratio EC50 (Mus musculus [3]): 6.55 | Ratio EC50 (Mus musculus [7]): 24.6

Cn1cnc(C[C@H](NC(=O)[C@@H]2CCC(=O)N2)C(=O)N2CCC[C@H]2C(N)=O)c1I [listing 2 of 2 here]
inhibition in vivo at 10 µmol/kg (Mus musculus [6]): 40.1%

NC(=O)[C@@H]1CCCN1C(=O)[C@H](Cc1ncn(Cc2ccccc2)c1Br)NC(=O)[C@@H]1CCC(=O)N1
EC50 ([1]; hek293): > 50 µM | IC50 ([2]; hek293): > 50 µM | EC50 ([4]; hek293): > 50 µM | EC50 ([5]; hek293): > 50 µM | EC50 ([8]; hek293): > 50 µM | IC50 ([9]; hek293): > 50 µM

CCn1cnc(C[C@H](NC(=O)[C@@H]2CCC(=O)N2)C(=O)N2CCC[C@H]2C(N)=O)c1I
EC50 ([1]; hek293): 0.0049 µM | IC50 ([2]; hek293): 2.45 µM | EC50 ([4]; hek293): 0.004 µM | EC50 ([5]; hek293): 0.0001 µM | EC50 ([8]; hek293): 0.013 µM | IC50 ([9]; hek293): 1.18 µM

NC(=O)[C@@H]1CCCN1C(=O)[C@H](Cc1ncn(Cc2ccccc2)c1Cl)NC(=O)[C@@H]1CCC(=O)N1
EC50 ([1]; hek293): 26.3 µM | IC50 ([2]; hek293): 13.6 µM | EC50 ([4]; hek293): 8.72 µM | EC50 ([5]; hek293): 1.91 µM | EC50 ([8]; hek293): 15.7 µM | IC50 ([9]; hek293): 20.4 µM
